# Tests used:
# [1] = test system: dopamine output in the striatum; assay: Striatal dopamine output measured by microdialysis; assay type: in vivo, Male Wistar rats; details: for Increase of dopamine in the striatum compared to L-DOPA (comparison of AUC0-t): 50 mg/kg i.p., relative to L-DOPA; for Increase of dopamine in the striatum compared to L-DOPA (comparison of AUC0-t) / Baseline corrected dopamine output in the striatum, AUC0-t: Male Wistar rats; for Baseline corrected dopamine output in the striatum, AUC0-t: 50 mg/kg intraperitoneal, 10 mg/kg Carbidopa i.p. 30 min before, microdialysis in dorsolateral striatum
# Description: The striatal output of dopamine was measured in Male Wistar rats following intraperitoneal administration of 50 mg/kg L-2-Amino-3-(3,4-dihydroxyphenyl) propionic acid (L-DOPA), L-2-Amino-2,3,3-trideutero-3-(3,4-dihydroxyphenyl) propionic acid (WO-A 2004/056724, Example 6) and L-2-Amino-2,3-dideutero-3-(3,4-dihydroxyphenyl) propionic acid (Example 6), respectively. Male wistar rats (BK Universal, Sollentuna, Sweden) weighing about 300 g at the time of experiment were anaesthetized with a cocktail containing fentanyl citrate (0.39 mg/kg) and fluanisone (12.5 mg/kg, Hypnorm®, Janssen-Cilag) and midazolam (6.25 mg/kg, Dormicum®, Roche) diluted in distilled water (1:1:2; 5 ml/kg i.p.) and mounted in a stereotaxic frame. Dialysis probes were implanted in the dorsolateral striatum (AP: +0.6: ML+3.0: DV −6.2 relative to bregma and the dural surface according to the atlas of Paxinos and Watson (1998)). Dialysis occurs through a semipermeable membrane (Filtral AN69, Hospal Industrie, France) with an active surface length of 3.5 mm. Dialysis experiments were conducted approximately 48 h after surgery in freely moving rats. The rats received 30 min before administration of test items 10 mg/kg Carbidopa, (i.p.). The dialysis probe was perfused with a physiological perfusion solution (Apoteksbolaget, Sweden) at a rate of […] set by a microinfusion pump (Harvard Apparatus, Holliston, Mass.). Dialysate was collected over 15 min intervals and automatically injected into a high performance liquid chromatography (HPLC) system. On-line quantification of dopamine in the dialysate was accomplished by electro-chemical detection (ESA, Chelmsford, Mass.). The location of microdialysis probes was verified in slices of formalin-fixed tissue stained with neutral red. The baseline corrected concentrations (fmol/min) were plotted over the time.
# [2] = test system: striatal output of norepinephrine; assay: Striatal output of norepinephrine; assay type: in vivo; details: compared to L-DOPA
# [3] = Therapeutic equivalence during continuous intravenous infusion; assay type: in vivo
# Source text: The optimal infusion rate for L-DOPA methyl ester was 2.7 times that required for L-DOPA (Stocchi et al. 1992, Movement Disorders, 7: 249-256).
# dopamine in the striatum = details: male Wistar rats; known from WO-A 2004/056724; cited from earlier work
# [4] = test system: Parkinson's disease exhibiting severe on-off phenomena; details: continuous intravenous infusion, patients with Parkinson's disease with severe on-off phenomena; cited from earlier work
# [5] = cited from earlier work
# [6] = given orally or intraperitoneally, on a molar basis; cited from earlier work
smiles,measurement,setting,value
"[2H][C@@H](c1ccc(O)c(O)c1)[C@]([2H])(N)C(=O)O [Example 6, L-2-Amino-2,3(S)-dideutero-3-(3,4-dihydroxyphenyl) propionic acid]",Increase of dopamine in the striatum compared to L-DOPA (comparison of AUC0-t),[1],threefold higher
same,"Increase of dopamine in the striatum compared to L-2-Amino-2,3,3-trideutero-3-(3,4-dihydroxyphenyl) propionic acid",[1]; Example 15 and Table 1,significantly more
same,"Baseline corrected dopamine output in the striatum, AUC0-t",[1],685 fmol/min*min
same,Striatal output / formation of norepinephrine,[2],does not block the formation of norepinephrine
"[2H][C@@H](c1ccc(O)c(O)c1)[C@]([2H])(N)C(=O)OC [Example 7, L-2-Amino-2,3(S)-dideutero-3-(3,4-dihydroxyphenyl)methyl propionate]","Therapeutic equivalence to L-2-Amino-2,3-dideutero-3-(3,4-dihydroxyphenyl) propionic acid",[3],therapeutically equivalent
"[2H]C([2H])(c1ccc(O)c(O)c1)[C@]([2H])(N)C(=O)O [L-2-Amino-2,3,3-trideutero-3-(3,4-dihydroxyphenyl) propionic acid]",Increase of dopamine in the striatum compared to L-DOPA (comparison of AUC0-t),[1],about twice as high
same,"Baseline corrected dopamine output in the striatum, AUC0-t",[1],533 fmol/min*min
same,Striatal output / formation of norepinephrine,[2],reduces the striatal output of norepinephrine
same,Increase of dopamine in the striatum compared to non-deuterated L-DOPA,dopamine in the striatum,significantly more
"N[C@@H](Cc1ccc(O)c(O)c1)C(=O)O [L-2-Amino-3-(3,4-dihydroxyphenyl) propionic acid]","Baseline corrected dopamine output in the striatum, AUC0-t",[1],228 fmol/min*min
COC(=O)[C@@H](N)Cc1ccc(O)c(O)c1 [L-DOPA methyl ester],Optimal infusion rate relative to that required for L-DOPA,[4],2.7 times
same,Solubility,[5],highly soluble
same,Equivalence to L-DOPA in animal experiments,[6],equivalent on a molar basis to L-DOPA
